Patent US9693560B2, “Microbicide substances” (LANXESS Deutschland GmbH, priority 2013, dated 2017)
Where a name gives a salt, the structure may show the parent alone. Read-outs that look alike come from different tables or passages of the source.

What was measured:
Assay type in all cases: cell-based
Candida albicans = assay: MIC growth test (malt extract Bouillon)
Protocol: (§1) The growth of bacteria and fungi upon the addition of different biocidal mixtures was tested. The concentration above which growth is no longer detected is given as the minimum inhibitory concentration (MIC). The precultivation of the bacteria which were used in the test was performed on tryptone soya agar. The precultivation of the fungi which were used in the test was performed on malt extract agar. The growth in the MIC tests was checked in tryptone soya broth (bacteria) or malt extract Bouillon (fungi). The organisms were incubated at 26° C. and a relative […] humidity of 70 to 80%. The bacteria were evaluated after 4 days, and the fungi were evaluated […] after 7 days.
(§2) The synergistic index (SI) was determined in accordance with the method described by Kull et al. (F. C. Kull et al., Applied Microbiology 9 (1961), 538-541).
(§3) The following equation applies here: SI=QA/Qa+QB/Qb

Pseudomonas stutzeri = assay: MIC growth test (tryptone soya broth)
Protocol: as §1, §2, §3

Enterococcus hirae = assay: MIC growth test (tryptone soya broth)
Protocol: as §1, §2, §3

[1] = test system: Corynebacterium ammoniagenes; assay: MIC growth test (tryptone soya broth)
Protocol: as §1, §2, §3

Enterobacter aerogenes = assay: MIC growth test (tryptone soya broth)
Protocol: as §1, §2, §3

Citrobacter freundii = assay: MIC growth test (tryptone soya broth)
Protocol: as §1, §2, §3

Alcaligenes faecalis = assay: MIC growth test (tryptone soya broth)
Protocol: as §1, §2, §3

Staphylococcus aureus = assay: MIC growth test (tryptone soya broth)
Protocol: as §1, §2, §3

Bacillus subtilis = assay: MIC growth test (tryptone soya broth)
Protocol: as §1, §2, §3

Proteus hauseri = assay: MIC growth test (tryptone soya broth)
Protocol: as §1, §2, §3

Pseudomonas aeruginosa = assay: MIC growth test (tryptone soya broth)
Protocol: as §1, §2, §3

Stachybotrys chartarum = assay: MIC growth test (malt extract Bouillon)
Protocol: as §1, §2, §3

Paecilomyces formosus = assay: MIC growth test (malt extract Bouillon)
Protocol: as §1, §2, §3

Geotrichum candidum = assay: MIC growth test (malt extract Bouillon)
Protocol: as §1, §2, §3

Penicillium pinophilum = assay: MIC growth test (malt extract Bouillon); conditions: Talaromyces pinophilus
Protocol: as §1, §2, §3

Alternaria alternata = assay: MIC growth test (malt extract Bouillon)
Protocol: as §1, §2, §3

Salmonella enterica = assay: MIC growth test (tryptone soya broth); conditions: Example 3, Table 11
Protocol: as §1, §2, §3

Escherichia coli = assay: MIC growth test (tryptone soya broth)
Protocol: as §1, §2, §3

O=c1[nH]sc2ccccc12 [BIT, 1,2-benzisothiazolin-3-one]
MIC (Candida albicans; Example 3, Table 17): 25 ppm | MIC (Pseudomonas stutzeri; Pseudomonas stutzeri, Example 3, Table 11): 10 ppm | MIC (Enterococcus hirae; Example 3, Table 11): 10 ppm | MIC ([1]; Example 3, Table 11): 37.5 ppm | MIC (Enterobacter aerogenes; Enterobacter aerogenes, Example 3, Table 11): 25 ppm | MIC (Citrobacter freundii; Example 3, Table 11): 10 ppm | MIC (Alcaligenes faecalis; Example 3, Table 11): 2.5 ppm | MIC (Staphylococcus aureus; Example 3, Table 14): 5 ppm | MIC (Bacillus subtilis; Example 3, Table 11): 5 ppm | MIC (Proteus hauseri; Example 3, Table 11): 7.5 ppm | MIC (Pseudomonas aeruginosa; Example 3, Table 11): 50 ppm

CCCCCCCCCCCCNC(=N)N [DGH, dodecylguanidine hydrochloride]
MIC (Stachybotrys chartarum; Example 2, Table 10): 7.5 µg/mL | MIC (Stachybotrys chartarum; Example 4, Table 23): 10 µg/mL | MIC (Paecilomyces formosus): 5 µg/mL | MIC (Candida albicans): 25 µg/mL | MIC (Geotrichum candidum): 10 µg/mL | MIC (Penicillium pinophilum): 7.5 µg/mL | MIC (Alternaria alternata): 10 µg/mL | MIC (Salmonella enterica): 10 µg/mL | MIC (Pseudomonas stutzeri; Stutzerimonas stutzeri): 5 µg/mL | MIC (Enterococcus hirae): 2.5 µg/mL | MIC [1]: 2.5 µg/mL | MIC (Enterobacter aerogenes; Klebsiella aerogenes): 10 µg/mL | MIC (Citrobacter freundii): 5 µg/mL | MIC (Citrobacter freundii; Example 3, Table 11): 5 ppm | MIC (Escherichia coli): 5 µg/mL | MIC (Alcaligenes faecalis): 10 µg/mL | MIC (Alcaligenes faecalis; Example 3, Table 11): 10 ppm | MIC (Staphylococcus aureus): 1 µg/mL | MIC (Staphylococcus aureus; Example 3, Table 14): 1 ppm | MIC (Bacillus subtilis; Example 2, Table 7): 2.5 µg/mL | MIC (Bacillus subtilis; Example 3, Table 11): 3.75 µg/mL | MIC (Proteus hauseri): 10 µg/mL | MIC (Pseudomonas aeruginosa): 25 µg/mL

Cn1sccc1=O [MIT, 2-methyl-4-isothiazolin-3-one]
MIC (Stachybotrys chartarum; Example 4, Table 23): 250 µg/mL | MIC (Alternaria alternata): 100 µg/mL | MIC (Escherichia coli): 25 µg/mL
